Test system: VEGF expression in CT-26 colon adenocarcinoma cells
Assay: VEGF silencing in vitro, mouse VEGF ELISA of cell supernatants
Format: cell-based
Details: bPEI carrier; N/P ratio of 10; CT-26 cells; 0.7 μg siRNA/well
Description: To evaluate the biological significance of these systems, the inhibitory activity of siRNA against the expression of VEGF in CT-26 colon adenocarcinoma cells was investigated.
CT-26 cells were seeded in 24-well tissue culture plates at 8×10^4 cells per well in 10% FBS containing RPMI 1640 medium. Cells achieved 80% confluency within 24 h, after which they were transfected with cationic substance/siRNA complexes prepared at N/P ratios ranging from 5 to 40. The total amount of siRNA loaded was maintained constant at 0.7 μg/well. The transfection was carried out in the absence of serum. The cells were allowed to incubate at 37° C. in the presence of complexes for 4 h in a CO2 incubator, followed by replacement of 1 ml of RPMI 1640 containing 10% FBS. Thereafter, the cells were incubated at 37° C. for an additional 24 h. […]
The amount of mouse VEGF produced in medium was determined using a mouse VEGF ELISA kit (R&D Systems Inc., Minneapolis, Minn.) according to the recommendation of the manufacturer. […] The enzymatic reaction was stopped by adding 100 μl of stop solution to the wells, and absorbance was determined by spectrophotometry at 450 nm. The VEGF concentration in the cell supernatant samples was calculated based on the standard curve.
The inhibitory effect was evaluated from the relative silencing of the VEGF assayed by ELISA.

scVEGF: scrambled VEGF siRNA, SEQ ID NO:3 and SEQ ID NO:4; in b74 tested as complex with bPEI (chain 1 GAUAGCAAUGACGAAUGCGUATT; chain 2 UACGCAUUCGUCAUUGCUAUCTT; chemistry not given here)
silencing of VEGF expression (ELISA): no effect
